Results published in BindingDB's records for doi:10.1021/jm060653b (Pfizer, 2007).

Target: T1, cAMP and cAMP-inhibited cGMP 3',5'-cyclic phosphodiesterase 10A (Rattus norvegicus, UniProt Q9QYJ6)
T1 sequence (Q9QYJ6 whole entry): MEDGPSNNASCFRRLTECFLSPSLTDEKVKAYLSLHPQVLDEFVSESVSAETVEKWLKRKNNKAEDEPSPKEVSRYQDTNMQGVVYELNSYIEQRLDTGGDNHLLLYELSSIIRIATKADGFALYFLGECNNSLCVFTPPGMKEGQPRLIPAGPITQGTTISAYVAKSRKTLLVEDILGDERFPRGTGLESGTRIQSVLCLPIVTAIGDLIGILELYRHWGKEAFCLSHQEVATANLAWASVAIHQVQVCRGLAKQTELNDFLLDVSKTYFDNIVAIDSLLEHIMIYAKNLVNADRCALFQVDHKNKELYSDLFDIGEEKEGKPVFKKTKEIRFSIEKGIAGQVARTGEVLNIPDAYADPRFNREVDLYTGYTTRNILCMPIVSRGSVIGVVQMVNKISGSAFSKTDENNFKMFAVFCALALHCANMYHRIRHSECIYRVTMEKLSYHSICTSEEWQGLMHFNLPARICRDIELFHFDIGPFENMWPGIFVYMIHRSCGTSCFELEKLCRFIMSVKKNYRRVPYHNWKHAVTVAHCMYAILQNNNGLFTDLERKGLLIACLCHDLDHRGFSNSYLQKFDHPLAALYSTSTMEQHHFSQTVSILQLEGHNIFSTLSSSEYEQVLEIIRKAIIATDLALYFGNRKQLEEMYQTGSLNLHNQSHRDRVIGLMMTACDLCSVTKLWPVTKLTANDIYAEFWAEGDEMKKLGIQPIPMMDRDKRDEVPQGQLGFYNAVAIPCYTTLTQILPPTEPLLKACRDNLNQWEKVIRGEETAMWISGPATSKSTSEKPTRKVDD
Assay: PDE Competitive Enzyme Inhibition Assay
Conditions: pH 7.5; 22 °C
Text: PDE activity was monitored by measuring the hydrolysis of [3H]-cAMP to [3H]-AMP using a scintillation proximity assay (SPA). [3H]-AMP was captured by the SPA beads, and quantified on a TopCount plate reader.

Q: `COc1cc2ncnc(N3CC[C@@H](Oc4ccc(C(C)(C)C)cc4)C3)c2cc1OC` [(R)-4-[3-(4-tert-Butyl-phenoxy)-pyrrolidin-1-yl]-6,7-dimethoxy-quinazoline] was tested. Which Ki did it give?
A: 100 nM
